Data from PMC3849007 (Journal of Experimental & Clinical Cancer Research : CR, 2013).

Legend:
NCI60 panel = NCI60 panel growth inhibition; type: cell-based, human
BJ-hTERT fibroblasts = experiment: Proliferation assay, normal telomerised fibroblasts; type: cell-based, human; conditions: 0.5 μM, culture day 2 to 8
Experimental: BJ fibroblasts expressing hTERT (BJ-hTERT) or hTERT and SV40 early region (BJ-EHLT), were obtained as previously reported. Cells were grown in Dulbecco Modified Eagle Medium (D-MEM, Invitrogen Carlsbad, CA, USA) supplemented with 10% fetal calf serum, 2 mM L-glutamin and antibiotics.
5 × 10^4 cells were seeded in 60-mm Petri plates (Nunc, MasciaBrunelli, Milano, Italy) and 24 h after plating, 0.5 μM of freshly dissolved compound was added to the culture medium. Cell counts (Coulter Counter, Kontron Instruments, Milano, Italy) and viability (trypan blue dye exclusion) were determined daily, from day 2 to day 8 of culture.

[1] = tested on: telomere aberrations in BJ-EHLT fibroblasts; experiment: Telomere FISH on metaphase spreads; type: cell-based, human; conditions: 0.5 μM, 72 hrs
Experimental: For metaphase chromosome preparation cells were treated with demecolcine (Sigma, Milan, Italy) 0.1 mg/ml for 4 h and then harvested and washed in 75 mM KCl for 5 min at 37°C. After centrifugation cells were fixed in MeOH/acetic acid 3:1 overnight and then spread on slides. Hybridization with rhodamine-coupled PNA was performed as described. For each sample 20 metaphases per slice on triplicate were scored. Images of the metaphases were captured with a 100 × objective.

[2] = tested on: γH2AX in BJ-EHLT fibroblasts; experiment: Immunofluorescence for γH2AX (DNA damage response); type: cell-based, human; conditions: 0.5 μM, 24 hrs
Experimental: Cells were fixed in 2% formaldehyde and permeabilized in 0.25% Triton X100 in PBS for 5 min at room temperature. For immunolabeling, cells were incubated with primary antibody, then washed in PBS and incubated with the secondary antibodies. The following primary antibodies were used: pAb and mAb anti-TRF1 (Abcam Ltd.; Cambridge UK); mAb (Upstate, Lake Placid, NY) and pAb anti-γH2AX (Abcam). The following secondary antibody were used: TRITC conjugated Goat anti Rabbit, FITC conjugated Goat anti Mouse (Jackson ImmunoResearch Europe Ltd., Suffolk, UK). Fluorescence signals were recorded by using a Leica DMIRE2 microscope equipped with a Leica DFC 350FX camera and elaborated by a Leica FW4000 deconvolution software (Leica, Solms, Germany). This system permits to focus single planes inside the cell generating 3D high-resolution images. For quantitative analysis of γH2AX positivity, 200 cells on triplicate slices were scored. For TIF’s analysis, in each nucleus a single plane was analyzed and at least 50 nuclei per sample were scored.

M3 muscarinic receptor = target: T1, M3 muscarinic receptor (Homo sapiens, UniProt P20309); experiment: Cerep ExpresSProfile receptor screen, M3; conditions: data not shown, read-out: % inhibition of ligand binding, M3 muscarinic receptor
T1 construct: purchased Cerep (ExpresSProfile screen, contract service)
T1 sequence (P20309 whole entry): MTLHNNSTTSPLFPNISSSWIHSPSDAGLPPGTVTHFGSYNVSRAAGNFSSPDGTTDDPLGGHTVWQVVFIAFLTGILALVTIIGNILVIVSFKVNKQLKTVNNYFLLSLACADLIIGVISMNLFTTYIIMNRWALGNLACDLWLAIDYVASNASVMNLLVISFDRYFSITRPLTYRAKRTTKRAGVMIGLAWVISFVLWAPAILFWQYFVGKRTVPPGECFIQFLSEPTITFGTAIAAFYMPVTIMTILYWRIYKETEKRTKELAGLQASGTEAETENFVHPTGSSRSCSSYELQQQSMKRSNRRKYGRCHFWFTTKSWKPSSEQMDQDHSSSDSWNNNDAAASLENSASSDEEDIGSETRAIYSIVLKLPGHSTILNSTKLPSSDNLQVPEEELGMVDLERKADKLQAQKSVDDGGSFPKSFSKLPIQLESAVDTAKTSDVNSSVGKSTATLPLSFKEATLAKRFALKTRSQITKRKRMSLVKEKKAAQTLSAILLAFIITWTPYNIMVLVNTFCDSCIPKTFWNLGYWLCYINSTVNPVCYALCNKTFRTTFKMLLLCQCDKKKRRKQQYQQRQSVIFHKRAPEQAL
Experimental: (§1) To investigate the molecular bases of cardio toxicity, the agent was tested for its potential to interact with a panel of 54 pharmacological receptors, the majority being human recombinant receptors (Cerep ExpresSProfile screen) (http://www.cerep.fr).

M1 muscarinic receptor = target: T2, M1 muscarinic receptor (Homo sapiens, UniProt P11229); experiment: Cerep ExpresSProfile receptor screen, M1; conditions: data not shown, read-out: % inhibition of ligand binding, M1 muscarinic receptor
T2 construct: purchased Cerep (ExpresSProfile screen, contract service)
T2 sequence (P11229 whole entry): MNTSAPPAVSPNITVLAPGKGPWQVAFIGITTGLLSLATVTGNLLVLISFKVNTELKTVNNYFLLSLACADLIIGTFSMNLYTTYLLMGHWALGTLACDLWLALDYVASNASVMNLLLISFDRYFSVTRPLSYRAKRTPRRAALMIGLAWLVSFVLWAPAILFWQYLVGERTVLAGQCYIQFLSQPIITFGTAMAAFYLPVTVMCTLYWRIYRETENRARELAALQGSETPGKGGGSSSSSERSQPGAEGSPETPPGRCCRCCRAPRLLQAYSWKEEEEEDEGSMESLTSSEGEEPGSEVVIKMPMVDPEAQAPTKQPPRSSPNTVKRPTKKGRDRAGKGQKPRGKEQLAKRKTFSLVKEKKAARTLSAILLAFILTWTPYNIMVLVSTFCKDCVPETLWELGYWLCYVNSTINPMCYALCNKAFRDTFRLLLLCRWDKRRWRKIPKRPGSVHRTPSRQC
Experimental: as §1

[3] = tested on: human tumor xenografted nude mice; parameters: method as in PMID 19010844; conditions: cited from earlier work

Structure (SMILES) | GI50 (NCI60 panel; Homo sapiens, NCI data, read-out: Mean GI50 value from the NCI60 panel) [µM] | effect on cell proliferation in a panel of different histotype tumor cell lines (NCI60 panel; several human cancer cell lines) | inhibition of cell proliferation in normal telomerized fibroblasts (BJ-hTERT fibroblasts) | telomere aberrations (telomere doublets, sister telomere fusions) [1] | percentage of cells positive for γH2AX [2] | inhibition at 1 µM (M3 muscarinic receptor) [%] | inhibition at 1 µM (M1 muscarinic receptor) [%] | toxic deaths or body weight loss ([3]; efficacious doses, during or after treatment) | histological analysis of organs and tissues ([3]; end of treatment) | haemodynamic effect just after administration ([3]; treated vs control mice, with heart rate and cardiac output decrease)
CC(=O)Nc1ccc2c(c1)c1cccc3c1c([n+]2C)-c1ccccc1N3C [Compound 3, 3-acetylamino-8,13-dimethyl-8H-quino[4,3,2-kl]-acridinium iodide] | 81.3 | maintained an anti-proliferative effect | did not induce inhibition of cell proliferation | lower effect | less potent than the lead compound | – | – | – | – | –
Cc1cc2c3c([n+](C)c4ccc(F)cc4c3c1)-c1cc(F)ccc1N2C [Compound 1, 3,11-Difluoro-6,8,13-trimethyl-8H-quino[4,3,2-kl]acridinium metho-sulfate] | – | – | – | – | – | > 95 | > 95 | no toxic deaths or body weight loss | no evidence of lesions or morphological alterations | marked but reversible hypotension
